Measured values as given in US8349805B2, “Use of Gonadorelin as a therapeutic agent” (priority 2007, dated 2013).
Ends that are not written are not given here.

System: drug-resistant Mycobacterium tuberculosis
Conditions: 10 micrograms per ml; seven days at 37° C.; strain resistant to PAS, streptomycin and isoniazid

CC(C)C[C@H](NC(=O)CNC(=O)[C@H](Cc1ccc(O)cc1)NC(=O)[C@H](CO)NC(=O)[C@H](Cc1c[nH]c2ccccc12)NC(=O)[C@H](Cc1cnc[nH]1)NC(=O)[C@@H]1CCC(=O)N1)C(=O)N[C@@H](CCCNC(=N)N)C(=O)N1CCC[C@H]1C(=O)NCC(N)=O [Peptide 1]
inhibition of the growth of Mycobacterium tuberculosis: 100%

Met-Gln-Met-Lys-Lys-Val-Leu-Asp-Ser-OH (MQMKKVLDS-OH) [Peptide 2]
inhibition of the growth of Mycobacterium tuberculosis: 100%
